The record followed here is US8735152B2, “Methods for inducing cell death in pluripotent stem cells and differentiated cells other than cardiac myocytes” (Daiichi Sankyo Company, Limited, priority 2009, dated 2014).

Common to all, as to type: cell-based
Assay [1] has as its system human induced pluripotent stem cells (iPS cells). The experiment in a line: Cell death inducing effect on human induced pluripotent stem cells (TMRM, FACS). As to conditions: 0.45 M, 2 hours. The protocol:
The human iPS cells were obtained from Stem Cell Research Center, Institute for Frontier Medical Sciences, Kyoto University (ES cell center sponsored by the National Bio-Resource Project). The cells were cultured basically in accordance with the same method as that in the case of human embryonic stem cells, i.e., in accordance with the same method as described in Example 5. After passaging, the cells were dispersed with each other using TE (0.25% trypsin (GIBCO) and 1 mM EDTA) and in accordance with a published document (Watanabe, K. et al., Nat. Biotechnol., 2007, 25: 681-686, Epub 2007 May 27), 10 μM of a ROCK inhibitor (Y27632) was added to suppress cell death. At the same time, the mitochondria in the live cells were stained with 50 nM TMRM. […] In the control, cells were aggregated with each other to make masses, so before FACS analysis, both samples were given another treatment with trypsin and EDTA to disperse the cells; thereafter, the samples were analyzed by FACS for the level of mitochondrial membrane potential on the basis of the fluorescent intensity of TMRM to check the state of survival of the stem cells; the results are shown in FIG. 12. […]

Assay [2] has as its system human embryonic stem cells. As to the kind of experiment: Cell death inducing effect on human embryonic stem cells (TMRM FACS, 5-day adherent culture). Particulars: 0.45 M. The protocol: The human embryonic stem cells were obtained from Stem Cell Research Center, Institute for Frontier Medical Sciences, Kyoto University (ES cell center sponsored by the National Bio-Resource Project) (Suemori, H et al., Biochem. Biophys. Res. Commun., Vol. 345, 2006, pp. 926-932). The cells were cultured basically in accordance with the method described in this document. To be more specific, the human embryonic stem cells were cultured to maintain their undifferentiated state using mouse embryonic fibroblasts (MEF) that had been inactivated for growth by treatment with mitomycin C. The culture medium of F12/DMEM (1:1) (SIGMA; Product No. D6421), supplemented with 20% KO-SERUM (GIBCO), 1.6 mM L-glutamine, 0.1 mM non-essential amino acids (MEM), 0.1 mM β-mercaptoethanol (2-ME; Sigma), 100 IU/ml penicillin, 100 μg/ml streptomycin sulfate, and recombinant human basic fibroblast growth factor (bFGF; Reprotech) was used. Upon passaging, the cells were treated with 0.1% type III collagenase (Wortington) at 37° C. for 10 minutes to separate embryonic stem cell colonies. After passaging, the cells were dispersed with each other using TE (0.25% trypsin (GIBCO) and 1 mM EDTA) and in accordance with a published document (Watanabe, K. et al., Nat. Biotechnol., 2007, 25: 681-686, Epub 2007 May 27), 10 μM of a ROCK inhibitor (Y27632) was added to suppress cell death. At the same time, the mitochondria in the live cells were stained with 50 nM TMRM. Part of the stained cells were treated with an α-MEM culture medium containing 0.45 M mannitol (approximately equivalent to 720 mOsm/kg) for 2, 3 or 4 hours and three samples were prepared from these cells; the rest of the stained cells were treated with a mannitol-free α-MEM culture medium for 2 hours and a sample was prepared from these cells as a control. In the control, cells were aggregated with each other to make masses, so before FACS analysis, the treated groups and the control were given another treatment with trypsin and EDTA to disperse the cells. The cells treated with mannitol for 2, 3 or 4 hours and the control cells were analyzed by FACS for the level of mitochondrial membrane potential on the basis of the fluorescent intensity of TMRM to check the state of survival of the stem cells; the results are shown in FIG. 7. […] In addition, the TMRM-stained cells were photographed, both for the case of 2-h treatment with mannitol and for the control (FIG. 8)). […] Changes in the mitochondrial membrane potential were observed using the experimental technique of Example 5, provided that the human embryonic stem cells were treated not with mannitol, but with 0.45 M of various other saccharides (sugar alcohols: sorbitol and xylitol; sugars: sucrose and glucose; betaines: trimethylglycine) (approximately equivalent to 750-780 mOsm/kg) for 2 hours.

In assay [3] the test system is mouse embryonic stem cells. As to the kind of experiment: Cell death inducing effect of low-concentration mannitol on mouse embryonic stem cells (adhesion, morphology). As to conditions: 0.2 M. The protocol: Embryonic stem cells as cultured by the method described in Example 1 were cultured for an additional 48 or 72 hours in an α-MEM culture medium containing 0.2 M mannitol (approximately equivalent to 480 mOsm/kg); thereafter, the stem cells were checked for the state of their survival in terms of cell adhesion or non-adhesion and by morphological observation; the results are shown in FIG. 15.

The test system of assay [4] is cardiomyocyte containing mouse embryoid bodies. The experiment in a line: Low-concentration mannitol treatment of cardiomyocyte containing mouse embryoid bodies. Particulars: 0.2 M, 72 hours. The protocol:
Additionally, similar to the method described in Example 1, 75 mouse embryonic stem cells per EB were cultured as cell masses for a total of 7 days by the hanging-drop technique using a culture medium [α-MEM (minimum essential medium) (SIGMA), supplemented with 10% FBS (EQUITEC BIO), 100 units/ml penicillin, and 50 μg/ml streptomycin (GIBCO)], whereby the stem cells were differentiated into cell masses containing cardiomyocytes; thereafter, the embryoid bodies were adhered to the culture dish and cultured for another 3-5 days under the conditions of 37° C. and 5% CO2.

The test system of assay [5] is mouse embryonic stem cells. As to the kind of experiment: Cell death inducing effect on mouse embryonic stem cells (TMRM, FACS). As to conditions: 0.45 M. An excerpt:
The mitochondrial membrane potential is lost in dead cells, so if cells are stained with the mitochondrial membrane potential sensitive reagent TMRM (Molecular Probe) which emits fluorescence upon detecting the membrane potential which is an indicator of survival, the fluorescence signal derived from this reagent is high in live cells but low in dead cells. This feature was used in Example 3; embryonic stem cells cultured by the method of Example 1 were further cultured in an α-MEM culture medium containing 0.45 M mannitol (approximately equivalent to 720 mOsm/kg) and 1 μM TMRM for a period of 0 h (Pre), 3 h, 6 h or 20 h; the cultured embryonic stem cells were harvested, washed and subjected to FACS analysis for checking the state of their survival on the basis of the fluorescence intensity of the mitochondrial membrane potential sensitive reagent TMRM; the results are shown in FIG. 4. In FIG. 4 depicting the results of FACS analysis for 0 h (Pre), 3 h, 6 h, and 20 h, the cells lying above the border line on the dot plots diagrams are live cells and those below the border line are dead cells.

On to `OC[C@@H](O)[C@@H](O)[C@H](O)[C@H](O)CO` [mannitol], for which the “Mitochondrial membrane potential (TMRM fluorescence, FACS)” value in assay [1] and in assay [2] (2 hours) was “almost all of the cells treated with mannitol for 2 hours had lost membrane potential” each time. Moreover, the “Self-aggregation of cells immediately after treatment” value in assay [2] (2 hours, photographs of TMRM-stained cells) is given as “remained dispersed”. The “Survival after adherent culture for 5 days” value in assay [2] (then 5 days adherent culture) was “none of the cells exposed to mannitol were found live”. Also, the “State of survival (cell adhesion, morphology)” value was “almost all colonies had already detached from the culture dish” in assay [3] (48 hours) and “the cells were completely dead” in assay [3] (72 hours). Moreover, in assay [4], the “State of cells other than cardiomyocytes and of cardiomyocytes” value was “almost all cells other than cardiomyocytes had died and only the cardiomyocytes survived selectively”. Moreover, the entries for the “Cells that had died” value in assay [5] (3-hr treatment), in assay [5] (6-hr treatment) and in assay [5] (20-hr treatment) were “approximately 90%”, 98% and “all cells had been dead”, respectively.
